Laboratory results: PubChem BioAssay AID1117319 (Southern Research Institute, 2015)
Records with an inconclusive call do not appear.

Each molecule was assayed against Virion infectivity factor (Human immunodeficiency virus type 1 group M subtype B (isolate BH10)) + Virion infectivity factor (Human immunodeficiency virus type 1 group M subtype B (isolate BRU/LAI)) + Virion infectivity factor (Human immunodeficiency virus type 1 group M subtype B (isolate PCV12)) + Virion infectivity factor (Human immunodeficiency virus type 1 group M subtype B (isolate HXB2)) + DNA dC->dU-editing enzyme APOBEC-3G (Homo sapiens) (UniProt P69720+P69721+P69722+P69723+Q9HC16) (assay: inhibitors of Vif binding to APOBEC3G peptide, primary screen, biochemical, TR-FRET, GST-Vif 1-94, biotin-A3G peptide, dose response retest (AID 1117319);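 further: Vif residues 1-94 fused to GST binding biotinylated APOBEC3G peptide 110-148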).
`O=C(c1ccc2nc(-c3ccco3)c(-c3ccco3)nc2c1)N1CCC2(CC1)OCCO2` was tested, and the IC50 was 0.35 µM.
In the case of `CC1(C)CC(Nc2ccc(Nc3ccccc3)cc2)CC(C)(C)N1`, the IC50 is reported as 7.13 µM.
In the case of `CCC(C)[C@@H](C(=O)Nc1ccc2c(c1)OCO2)N1Cc2ccccc2C1=O` (stereo not given in full), the IC50 is reported as 98.4 µM.
For `CC(=O)OC(C)C1C2=C(C(=O)CC1(C)O)C(=O)c1c(ccc(-c3ccc4c(c3O)C(=O)C3=C(C4=O)C(C(C)OC(C)=O)C(C)(O)CC3=O)c1O)C2=O` (stereo not given), the IC50 was 0.73 µM.
`COC1=CC(=O)C(C2CC(=O)c3c(O)cc(O)cc3O2)=CC1=O` (stereo not given) was tested, and the IC50 was 15 µM.
In the case of `COc1ccccc1/C=C(/CC(=O)NCc1ccccc1)c1nc2ccccc2s1`, the IC50 is reported as 45.3 µM.
For `Oc1ccc(N=Cc2ccc(-c3cccs3)s2)cc1`, the IC50 was 0.92 µM.
`CCOC(=O)N1CCN(c2ccc(O)cc2)CC1` showed an IC50 of 16.8 µM.
`Cc1ccc2c(c1)c(=O)c1c3n2CCN(C(=O)CCl)C3CC1` (stereo not given) gave an IC50 of 10.8 µM.
Molecule `O=C(c1cccc(-n2cccc2)c1)N1CCN(S(=O)(=O)c2ccccc2)CC1` has an IC50 of 17.3 µM.
With `NN=C1C(Cl)=C(Cl)C(Cl)=C1Cl` the IC50 was 10.6 µM.
With `O=C1NC(c2cccc(Br)c2)=N/C1=C\c1ccco1` the IC50 was 9.01 µM.
With `C=CCN1C(=O)/C(=C\c2ccco2)C(C(=O)OC)=C1C` the IC50 was 14.1 µM.
`O=c1cc(OCc2ccccc2)cc[nH]1` gave an IC50 of 3.1 µM.
`O=C(O)CCCNc1cc(N2CCC3(CC2)OCCO3)c2noc3c2c1C(=O)c1ccccc1-3` was tested, and the IC50 was 0.97 µM.
Molecule `COc1ccc2c(c1)c1ccc3c(c1n2C)C(=O)C=CC3=O` has an IC50 of 2.42 µM.
Molecule `Oc1cc2c(cc1O)C1c3ccc(O)c(O)c3OCC1(O)C2` (stereo not given) has an IC50 of 0.46 µM.
Work on `CN(C)c1ccc(N2C(=O)CC(Nc3ccc(N4CCOCC4)cc3)C2=O)cc1` (stereo not given) yielded an IC50 of 1.23 µM.
For `O=C(NCCO)c1ccc2nc(-c3ccco3)c(-c3ccco3)nc2c1`, the IC50 was 0.88 µM.
`CCOc1ccc(CCNC(=O)C2CC(C)=CCC2C(=O)O)cc1OCC` (stereo not given) showed an IC50 of 56.6 µM.
In the case of `CC1=C(O)C(=O)C=C2C1=CC=C1C2(C)CCC2(C)C3CC(C)(C(=O)O)CCC3(C)CCC12C` (stereo not given), the IC50 is reported as 12.2 µM.
`CC(C)CCNC(=O)Cn1c2c(c(-c3ccccc3Cl)cc1=O)CCC2` gave an IC50 of 19.7 µM.
`O=C1C(Cl)=C(Nc2ccc3cn[nH]c3c2)C(=O)c2ccccc21` showed an IC50 of 3.58 µM.
`CC1(OC(=O)CCc2ccccc2)C(=O)C=C2C=C(c3ccsc3)OC=C2C1=O` (stereo not given) gave an IC50 of 4.73 µM.
`C=CCn1c(SCC(=O)NCCCC)nc2scc(-c3ccco3)c2c1=O` showed an IC50 of 20.4 µM.
`O=C(O)c1ccc(-n2cccc2/C=C2/NC(=O)N(c3cccc(Cl)c3)C2=O)cc1` gave an IC50 of 1.71 µM.
Molecule `O=C1NC(=O)N(Cc2ccco2)C(=O)/C1=C/C=C/c1ccco1` has an IC50 of 0.91 µM.
In the case of `COC1=C(Br)C(=O)c2nc(C)ccc2C1=O`, the IC50 is reported as 13.6 µM.
`O=C(/C=C/c1ccco1)NC(=S)Nc1ccccc1N1CCOCC1` gave an IC50 of 11.5 µM.
Molecule `CCC1C/C(=C/c2ccco2)C(=O)/C(=C/c2ccco2)C1` (stereo not given) has an IC50 of 2.59 µM.
In the case of `CCN(CC(=O)Nc1c(F)cccc1F)C(=O)c1cccc(-n2cccc2)c1`, the IC50 is reported as 20.9 µM.
`O=C(c1ccc2nc(-c3ccco3)c(-c3ccco3)nc2c1)N1CCN(c2ncccn2)CC1` showed an IC50 of 1.03 µM.
`C/C(=N\Nc1ccc([N+](=O)[O-])cc1[N+](=O)[O-])c1cc2c(ccc3ccccc32)oc1=O` showed an IC50 of 2.92 µM.
`O=C(O)COc1ccc2c(c1)O/C(=C\c1ccco1)C2=O` showed an IC50 of 22.5 µM.
Molecule `Cc1ccc(N2C(=O)/C(=C\c3ccco3)SC2=S)cc1` has an IC50 of 7.72 µM.
With `COC(Cc1nnc(SC)n1-c1ccc(Cl)cc1)OC` the IC50 was 43 µM.
Work on `COC(=O)Cn1ncn2c(cc3oc(C)cc32)c1=O` yielded an IC50 of 71.6 µM.
With `C/C(N)=C(/C#N)C(=O)CSc1nnc(Nc2c(C)cccc2C)s1` the IC50 was 17.5 µM.
`CNc1ccc(Br)cc(C(=O)/C=C/c2ccc(Cl)cc2Cl)c1=O` showed an IC50 of 9.23 µM.
`CC(Cc1c[nH]c2ccccc12)C(=O)NCc1ccco1` (stereo not given) showed an IC50 of 33 µM.
Work on `O=C1C2CCCN2C(c2ccc(Cl)cc2)N1c1ccccn1` (stereo not given) yielded an IC50 of 84.7 µM.
`Cc1ccccc1NC(=O)CSc1nnc(-c2ccco2)c(-c2ccco2)n1` gave an IC50 of 1.17 µM.
Molecule `CN=c1scc(-c2ccco2)n1/N=C/c1ccc(O)c(O)c1` has an IC50 of 9.26 µM.
For `CCN1/C(=C(\O)c2ccccc2)C(=O)c2ccccc2S1(=O)=O`, the IC50 was 55 µM.
`O=C1/C(=C/c2ccco2)SC(=S)N1C1CCS(=O)(=O)C1` (stereo not given) showed an IC50 of 3.88 µM.
`Nc1ccc2c(O)cc(S(=O)(=O)O)cc2c1` showed an IC50 of 9.44 µM.
Molecule `Oc1ccc(NCc2cccc(OCc3ccccc3)c2)cc1` has an IC50 of 2.14 µM.
In the case of `COc1cc(-c2cccs2)cc(=O)c2c(C)oc(C)c12`, the IC50 is reported as 3.55 µM.
`CCN(CC)c1ccc2c(c1)CCCN2` showed an IC50 of 1.17 µM.
`CC1Cc2ccccc2N1Cc1cc(=O)n2ccsc2n1` (stereo not given) showed an IC50 of 7.03 µM.
In the case of `Clc1ccc2nc3ccccn3c2c1`, the IC50 is reported as 98.3 µM.
Molecule `CC(=O)N1CCN(c2nc(-c3ccco3)c3c(c2C#N)CC(C)(C)SC3)CC1` has an IC50 of 25.3 µM.
For `Cc1ccc(C=C2C(Cl)=C(Cl)C(Cl)=C2Cl)cc1`, the IC50 was 2.1 µM.
`CC1(C)CC2(CC(c3ccccc3F)c3ccc(O)c(O)c3O2)NC(=S)N1` (stereo not given) was tested, and the IC50 was 13.7 µM.
For `COc1ccc(CCNC(=O)/C=C/c2ccco2)cc1`, the IC50 was 37 µM.
In the case of `Cc1ccc(Nc2nc(C(=O)NCc3ccco3)cs2)cc1`, the IC50 is reported as 78.2 µM.
For `C/C(=C\C(=O)c1ccc(C)cc1)Nc1cccc(O)c1`, the IC50 was 53.3 µM.
In the case of `Nc1cc(N)nc(SCc2cc([N+](=O)[O-])cc3c2OCOC3)n1`, the IC50 is reported as 74.1 µM.
Work on `Cc1cc2ccccc2n1CCNC(=O)C1CCCCC1` yielded an IC50 of 37.2 µM.
For `CC(C(=O)O)N1C(=O)/C(=C/C=C/c2ccco2)SC1=S` (stereo not given), the IC50 was 0.39 µM.
In the case of `Cc1ccc(CNC(=O)COc2ccc3c(c2)CCC3)cc1`, the IC50 is reported as 44.6 µM.
In the case of `CS(=O)(=O)c1ccc(C(=O)Nc2nc(-c3ccco3)c(-c3ccco3)s2)cc1`, the IC50 is reported as 22.1 µM.
`O=C1C2CCCN2C(c2cccs2)N1c1ccccn1` (stereo not given) gave an IC50 of 82 µM.
In the case of `C=C(c1ccc(OCCO)cc1)c1ccc(OCCO)cc1`, the IC50 is reported as 56.6 µM.
`O=C(COC(=O)c1ccccc1)Nc1ncc([N+](=O)[O-])s1` was tested, and the IC50 was 6.6 µM.
`O=c1[nH][nH]c2c(N=Cc3ccccc3O)ccc(F)c12` was tested, and the IC50 was 0.87 µM.
Molecule `O=C1CC(/C=C/c2ccco2)=Nc2ccccc2N1` has an IC50 of 1.69 µM.
`Cc1ccnc(NS(=O)(=O)c2ccc(NC(=O)Cc3cccs3)cc2)n1` showed an IC50 of 8.35 µM.
`COc1cc2c(cc1OC)C(C)N(C(=O)c1cc3n(n1)C(C(F)(F)F)CC(c1ccco1)N3)CC2` (stereo not given) was tested, and the IC50 was 27.8 µM.
With `Cc1c(C(=O)N2CCN(c3ccccc3F)CC2)sc2nc(-c3ccccc3)cn12` the IC50 was 93 µM.
In the case of `CCC(=O)NNc1ncnc2ccccc12`, the IC50 is reported as 16.4 µM.
With `Cc1occc1-c1nnc(SCC(=O)N2CCN(c3ccccc3)CC2)n1C` the IC50 was 56.8 µM.
Molecule `O=C1c2ccccc2C(=O)N1/N=C/c1ccc(O)c(O)c1O` has an IC50 of 4.54 µM.
With `O=c1oc(/C=C/c2ccco2)nc2sc3c(c12)CCC3` the IC50 was 15.5 µM.
For `CC(C)CNC1=CC(=O)CC(c2ccco2)C1` (stereo not given), the IC50 was 3.75 µM.
In the case of `Cc1onc(-c2ccccc2Cl)c1C(=O)NCc1ccco1`, the IC50 is reported as 1.08 µM.
For `CCSC1=C(C#N)C(c2cccs2)C(C(=O)OC)=C(C)N1` (stereo not given), the IC50 was 75.5 µM.
Work on `O=C(O)CC1OCC=C2CN3CCC45C6=CC(=O)C(=O)C([N+](=O)[O-])=C6NC4C1C2CC35` (stereo not given) yielded an IC50 of 16.3 µM.
`N#Cc1ccccc1CN1C(=O)S/C(=C/c2cccn2-c2ccc(C(=O)O)cc2)C1=O` was tested, and the IC50 was 19.8 µM.
With `CN(C)C(CNC(=O)c1cccnc1Sc1ccccc1)c1ccco1` (stereo not given) the IC50 was 64 µM.
With `COC(=O)C1=COC(C)C2CN3CCc4c([nH]c5ccccc45)C3CC12` (stereo not given) the IC50 was 17.9 µM.
Molecule `COc1cccc(C(C#N)N2CCCCC2)c1O` (stereo not given) has an IC50 of 79.2 µM.
Molecule `O=C(O)C1OC(Oc2c(-c3ccc(O)c(O)c3)oc3cc(O)cc(O)c3c2=O)C(O)C(O)C1O` (stereo not given) has an IC50 of 2.7 µM.
`Cc1ccc(C)n1-c1ccc(-c2nnc3n2CCCCC3)s1` showed an IC50 of 8.58 µM.
Molecule `CC1C/C(=C/c2ccco2)C(=O)/C(=C/c2ccco2)C1` (stereo not given) has an IC50 of 1.89 µM.
